Data published in the NIST ThermoML archive (doi:10.1016/j.jct.2019.05.002).
± gives the expanded uncertainty stated by the source.

Test: xn = mol fraction of the nth substance listed
Conditions: 100 kPa, Liquid; for speed of sound: Frequency=3 MHz, Single path-length method; for mass density: Vibrating tube method

OCCCCO [1,4-butanediol] + CCCC(=O)OCC
speed of sound (298.15 K, x2 = 0): 1601.9 ± 1.1 m/s | speed of sound (298.15 K, x2 = 0.1009): 1558.5 ± 1.1 m/s | speed of sound (298.15 K, x2 = 0.1986): 1516.5 ± 1.1 m/s | speed of sound (298.15 K, x2 = 0.3254): 1461.9 ± 1.1 m/s | speed of sound (298.15 K, x2 = 0.4231): 1419.9 ± 1.1 m/s | speed of sound (298.15 K, x2 = 0.5008): 1386.5 ± 1.1 m/s | speed of sound (298.15 K, x2 = 0.5895): 1348.4 ± 1 m/s | speed of sound (298.15 K, x2 = 0.7128): 1295.3 ± 1 m/s | speed of sound (298.15 K, x2 = 0.8015): 1257.2 ± 1 m/s | speed of sound (298.15 K, x2 = 0.9105): 1210.3 ± 1 m/s | mass density (298.15 K, x2 = 0): 1012.8 ± 2 kg/m3 | mass density (298.15 K, x2 = 0.1009): 998.83 ± 2 kg/m3 | mass density (298.15 K, x2 = 0.1986): 985.3 ± 2 kg/m3 | mass density (298.15 K, x2 = 0.3254): 967.74 ± 2 kg/m3 | mass density (298.15 K, x2 = 0.4231): 954.2 ± 2 kg/m3 | mass density (298.15 K, x2 = 0.5008): 943.44 ± 2 kg/m3 | mass density (298.15 K, x2 = 0.5895): 931.16 ± 2 kg/m3 | mass density (298.15 K, x2 = 0.7128): 914.08 ± 2 kg/m3 | mass density (298.15 K, x2 = 0.8015): 901.8 ± 2 kg/m3 | mass density (298.15 K, x2 = 0.9105): 886.7 ± 2 kg/m3 | speed of sound (303.15 K, x2 = 0): 1590.3 ± 1.1 m/s | speed of sound (303.15 K, x2 = 0.1009): 1545.9 ± 1.1 m/s | speed of sound (303.15 K, x2 = 0.1986): 1503 ± 1.1 m/s | speed of sound (303.15 K, x2 = 0.3254): 1447.4 ± 1.1 m/s | speed of sound (303.15 K, x2 = 0.4231): 1404.4 ± 1.1 m/s | speed of sound (303.15 K, x2 = 0.5008): 1370.3 ± 1.1 m/s | speed of sound (303.15 K, x2 = 0.5895): 1331.4 ± 1 m/s | speed of sound (303.15 K, x2 = 0.7128): 1277.2 ± 1 m/s | speed of sound (303.15 K, x2 = 0.8015): 1238.3 ± 1 m/s | speed of sound (303.15 K, x2 = 0.9105): 1190.4 ± 1 m/s | mass density (303.15 K, x2 = 0): 1009.77 ± 2 kg/m3 | mass density (303.15 K, x2 = 0.1009): 995.55 ± 2 kg/m3 | mass density (303.15 K, x2 = 0.1986): 981.78 ± 2 kg/m3 | mass density (303.15 K, x2 = 0.3254): 963.91 ± 2 kg/m3 | mass density (303.15 K, x2 = 0.4231): 950.15 ± 2 kg/m3 | mass density (303.15 K, x2 = 0.5008): 939.2 ± 2 kg/m3 | mass density (303.15 K, x2 = 0.5895): 926.7 ± 2 kg/m3 | mass density (303.15 K, x2 = 0.7128): 909.32 ± 2 kg/m3 | mass density (303.15 K, x2 = 0.8015): 896.82 ± 2 kg/m3 | mass density (303.15 K, x2 = 0.9105): 881.46 ± 2 kg/m3 | speed of sound (308.15 K, x2 = 0): 1578.6 ± 1.1 m/s | speed of sound (308.15 K, x2 = 0.1009): 1533.4 ± 1.1 m/s | speed of sound (308.15 K, x2 = 0.1986): 1489.5 ± 1.1 m/s | speed of sound (308.15 K, x2 = 0.3254): 1432.7 ± 1.1 m/s | speed of sound (308.15 K, x2 = 0.4231): 1388.9 ± 1.1 m/s | speed of sound (308.15 K, x2 = 0.5008): 1354 ± 1.1 m/s | speed of sound (308.15 K, x2 = 0.5895): 1314.2 ± 1 m/s | speed of sound (308.15 K, x2 = 0.7128): 1258.9 ± 1 m/s | speed of sound (308.15 K, x2 = 0.8015): 1219.2 ± 1 m/s | speed of sound (308.15 K, x2 = 0.9105): 1170.3 ± 1 m/s | mass density (308.15 K, x2 = 0): 1006.74 ± 2 kg/m3 | mass density (308.15 K, x2 = 0.1009): 992.28 ± 2 kg/m3 | mass density (308.15 K, x2 = 0.1986): 978.27 ± 2 kg/m3 | mass density (308.15 K, x2 = 0.3254): 960.1 ± 2 kg/m3 | mass density (308.15 K, x2 = 0.4231): 946.09 ± 2 kg/m3 | mass density (308.15 K, x2 = 0.5008): 934.96 ± 2 kg/m3 | mass density (308.15 K, x2 = 0.5895): 922.24 ± 2 kg/m3 | mass density (308.15 K, x2 = 0.7128): 904.57 ± 2 kg/m3 | mass density (308.15 K, x2 = 0.8015): 891.85 ± 2 kg/m3 | mass density (308.15 K, x2 = 0.9105): 876.23 ± 2 kg/m3 | speed of sound (313.15 K, x2 = 0): 1567 ± 1.1 m/s | speed of sound (313.15 K, x2 = 0.1009): 1520.7 ± 1.1 m/s | speed of sound (313.15 K, x2 = 0.1986): 1476 ± 1.1 m/s | speed of sound (313.15 K, x2 = 0.3254): 1417.9 ± 1.1 m/s | speed of sound (313.15 K, x2 = 0.4231): 1373.2 ± 1.1 m/s | speed of sound (313.15 K, x2 = 0.5008): 1337.6 ± 1.1 m/s | speed of sound (313.15 K, x2 = 0.5895): 1297 ± 1 m/s | speed of sound (313.15 K, x2 = 0.7128): 1240.5 ± 1 m/s | speed of sound (313.15 K, x2 = 0.8015): 1199.9 ± 1 m/s | speed of sound (313.15 K, x2 = 0.9105): 1150 ± 1 m/s | mass density (313.15 K, x2 = 0): 1003.7 ± 2 kg/m3 | mass density (313.15 K, x2 = 0.1009): 988.99 ± 2 kg/m3 | mass density (313.15 K, x2 = 0.1986): 974.75 ± 2 kg/m3 | mass density (313.15 K, x2 = 0.3254): 956.27 ± 2 kg/m3 | mass density (313.15 K, x2 = 0.4231): 942.03 ± 2 kg/m3 | mass density (313.15 K, x2 = 0.5008): 930.7 ± 2 kg/m3 | mass density (313.15 K, x2 = 0.5895): 917.77 ± 2 kg/m3 | mass density (313.15 K, x2 = 0.7128): 899.8 ± 2 kg/m3 | mass density (313.15 K, x2 = 0.8015): 886.87 ± 2 kg/m3 | mass density (313.15 K, x2 = 0.9105): 870.99 ± 2 kg/m3 | speed of sound (318.15 K, x2 = 0): 1555.3 ± 1.1 m/s | speed of sound (318.15 K, x2 = 0.1009): 1508.1 ± 1.1 m/s | speed of sound (318.15 K, x2 = 0.1986): 1462.5 ± 1.1 m/s | speed of sound (318.15 K, x2 = 0.3254): 1403.2 ± 1.1 m/s | speed of sound (318.15 K, x2 = 0.4231): 1357.6 ± 1.1 m/s | speed of sound (318.15 K, x2 = 0.5008): 1321.3 ± 1.1 m/s | speed of sound (318.15 K, x2 = 0.5895): 1279.8 ± 1 m/s | speed of sound (318.15 K, x2 = 0.7128): 1222.2 ± 1 m/s | speed of sound (318.15 K, x2 = 0.8015): 1180.7 ± 1 m/s | speed of sound (318.15 K, x2 = 0.9105): 1129.8 ± 1 m/s | mass density (318.15 K, x2 = 0): 1000.67 ± 2 kg/m3 | mass density (318.15 K, x2 = 0.1009): 985.72 ± 2 kg/m3 | mass density (318.15 K, x2 = 0.1986): 971.24 ± 2 kg/m3 | mass density (318.15 K, x2 = 0.3254): 952.45 ± 2 kg/m3 | mass density (318.15 K, x2 = 0.4231): 937.98 ± 2 kg/m3 | mass density (318.15 K, x2 = 0.5008): 926.46 ± 2 kg/m3 | mass density (318.15 K, x2 = 0.5895): 913.32 ± 2 kg/m3 | mass density (318.15 K, x2 = 0.7128): 895.05 ± 2 kg/m3 | mass density (318.15 K, x2 = 0.8015): 881.9 ± 2 kg/m3 | mass density (318.15 K, x2 = 0.9105): 865.75 ± 2 kg/m3 | speed of sound (323.15 K, x2 = 0): 1543.7 ± 1.1 m/s | speed of sound (323.15 K, x2 = 0.1009): 1495.6 ± 1.1 m/s | speed of sound (323.15 K, x2 = 0.1986): 1449 ± 1.1 m/s | speed of sound (323.15 K, x2 = 0.3254): 1388.6 ± 1.1 m/s | speed of sound (323.15 K, x2 = 0.4231): 1342 ± 1.1 m/s | speed of sound (323.15 K, x2 = 0.5008): 1305 ± 1.1 m/s | speed of sound (323.15 K, x2 = 0.5895): 1262.7 ± 1 m/s | speed of sound (323.15 K, x2 = 0.7128): 1204 ± 1 m/s | speed of sound (323.15 K, x2 = 0.8015): 1161.7 ± 1 m/s | speed of sound (323.15 K, x2 = 0.9105): 1109.8 ± 1 m/s | mass density (323.15 K, x2 = 0): 997.63 ± 2 kg/m3 | mass density (323.15 K, x2 = 0.1009): 982.43 ± 2 kg/m3 | mass density (323.15 K, x2 = 0.1986): 967.72 ± 2 kg/m3 | mass density (323.15 K, x2 = 0.3254): 948.62 ± 2 kg/m3 | mass density (323.15 K, x2 = 0.4231): 933.91 ± 2 kg/m3 | mass density (323.15 K, x2 = 0.5008): 922.21 ± 2 kg/m3 | mass density (323.15 K, x2 = 0.5895): 908.85 ± 2 kg/m3 | mass density (323.15 K, x2 = 0.7128): 890.28 ± 2 kg/m3 | mass density (323.15 K, x2 = 0.8015): 876.92 ± 2 kg/m3 | mass density (323.15 K, x2 = 0.9105): 860.51 ± 2 kg/m3
